Reference: ChEMBL document CHEMBL4665802, “Design, Synthesis, and Structure-Activity Relationships of Indoline-Based Kelch-like ECH-Associated Protein 1-Nuclear Factor (Erythroid-Derived 2)-Like 2 (Keap1-Nrf2) Protein-Protein Interaction Inhibitors” (J Med Chem, 2020)
Active and inactive are the calls of the source. The rule behind the calls is not given here.

Key:
H9c2 [1] = experiment: Antiinflammatory activity against LPS-induced sepsis in rat H9c2 cells assessed as decrease in secretion of IL-1beta at 1 to 10 uM pretreated for 12 hrs followed by LPS addition measured after 12 hrs by sandwich ELISA; format: functional, cell-based; conditions: dose microM 1-10, time 24.0 hrs
Mus musculus [2] = experiment: Upregulation of Nrf2 protein levels in LPS-stimulated C57BL/6 mouse model at 10 to 40 mg/kg, ip qd administered for 3 days prior to LPS stimulation and measured after 12 hrs by Western blot analysis; format: functional, organism-based; conditions: dose mg/kg 10-40, time 3.5 day
Mus musculus [3] = experiment: Antioxidant activity against LPS-induced injury in C57BL/6 mouse assessed as increase in GSH/GSSG ratio at 10 mg/kg, ip qd administered for 3 days prior to LPS stimulation and measured after 12 hrs; format: functional, organism-based; conditions: dose mg/kg 10-40, time 3.5 day
[4] = molecular target: T1, KEAP1/NRF2 (Rattus norvegicus) (UniProt O54968+P57790); experiment: Inhibition of Keap1-Nrf2 protein-protein interaction in rat H9c2 cells assessed as upregulation of GCLM mRNA expression at 10 uM incubated for 4 to 24 hrs by Trizol reagent based qRT-PCR analysis; format: cell-based; conditions: time hrs 4-24
[5] = molecular target: T1, KEAP1/NRF2 (Rattus norvegicus); experiment: Inhibition of Keap1-Nrf2 protein-protein interaction in rat H9c2 cells assessed as upregulation of NQO1 mRNA expression at 10 uM incubated for 4 to 24 hrs by Trizol reagent based qRT-PCR analysis; format: cell-based; conditions: time hrs 4-24
[6] = Apparent clearance in rat at 5 mg/kg, iv by LC-MS/MS analysis; format: ADME, organism-based; conditions: in vivo
H9c2 [7] = experiment: Antiinflammatory activity against LPS-induced sepsis in rat H9c2 cells assessed as decrease in secretion of TNF-alpha at 1 to 10 uM pretreated for 12 hrs followed by LPS addition measured after 12 hrs by sandwich ELISA; format: functional, cell-based; conditions: dose microM 1-10, time 24.0 hrs
[8] = AUC (0 to t) in rat at 5 mg/kg, iv by LC-MS/MS analysis; format: ADME, organism-based; set-up: dose 5 mg/kg; conditions: in vivo
H9c2 [9] = experiment: Upregulation of Nrf2 protein levels in rat H9c2 cells at 10 uM incubated up to 24 hrs by Western blot; format: functional, cell-based; conditions: time hrs <=24
CYP2C19 = CYP2C19 (Homo sapiens, UniProt P33261); experiment: Inhibition of CYP2C19 (unknown origin) at 10 uM using omeprazole as substrate preincubated for 5 mins followed by NADPH addition and measured after 20 mins by LC-MS/MS analysis relative to control; format: ADME; conditions: probe omeprazole
[10] = Apparent volume of distribution in rat at 5 mg/kg, iv by LC-MS/MS analysis; format: ADME, organism-based; conditions: in vivo, read-out: Vz
Mus musculus [11] = experiment: Cardioprotective activity in LPS-stimulated sepsis in C57BL/6 mouse assessed as reduction in heart tissue inflammation at 10 mg/kg, ip qd administered for 3 days prior to LPS stimulation and measured after 12 hrs by hematoxylin and eosin staining based microscopy; format: functional, organism-based; conditions: time 3.5 day
[12] = molecular target: T1, KEAP1/NRF2 (Rattus norvegicus); experiment: Inhibition of Keap1-Nrf2 protein-protein interaction in rat H9c2 cells assessed as upregulation of GCLM expression at 10 uM incubated up to 24 hrs by Western blot; format: cell-based; conditions: time hrs <=24
[13] = molecular target: T1, KEAP1/NRF2 (Rattus norvegicus); experiment: Inhibition of Keap1-Nrf2 protein-protein interaction in rat H9c2 cells assessed as upregulation of HO1 mRNA expression at 10 uM incubated for 4 to 24 hrs by Trizol reagent based qRT-PCR analysis; format: cell-based; conditions: time hrs 4-24
Mus musculus [14] = experiment: Antiinflammatory activity in LPS-stimulated sepsis in C57BL/6 mouse assessed as decrease in IL-1beta levels at 10 mg/kg, ip qd administered for 3 days prior to LPS stimulation and measured after 12 hrs by ELISA; format: functional, organism-based; conditions: time 3.5 day
Mus musculus [15] = experiment: Antiinflammatory activity in LPS-stimulated sepsis in C57BL/6 mouse assessed as decrease in IL-6 levels at 10 mg/kg, ip qd administered for 3 days prior to LPS stimulation and measured after 12 hrs by ELISA; format: functional, organism-based; conditions: time 3.5 day
CYP2C9 = CYP2C9 (Homo sapiens, UniProt P11712); experiment: Inhibition of CYP2C9 (unknown origin) at 10 uM using […] as substrate preincubated for 5 mins followed by NADPH addition and measured after 20 mins by LC-MS/MS analysis relative to control; format: ADME
[16] = molecular target: T1, KEAP1/NRF2 (Rattus norvegicus); experiment: Inhibition of Keap1-Nrf2 protein-protein interaction in rat H9c2 cells assessed as upregulation of HO1 mRNA expression incubated for 12 hrs by Trizol reagent based qRT-PCR analysis; format: cell-based; conditions: dose microM 0.1-10, time 12.0 hrs
[17] = Intrinsic clearance in human liver microsome at 1 uM preincubated for 5 mins followed by NADPH addition and measured after 45 mins by LC-MS/MS analysis; format: ADME; conditions: microsomes, 0.75 h
Mus musculus [18] = experiment: Upregulation of NQO1 expression in LPS-stimulated C57BL/6 mouse model of sepsis at 10 to 40 mg/kg, ip qd administered for 3 days prior to LPS stimulation and measured after 12 hrs by Western blot analysis; format: functional, organism-based; conditions: dose mg/kg 10-40, time 3.5 day
CYP1A2 = molecular target: T2, CYP1A2 (Homo sapiens, UniProt P05177); experiment: Inhibition of CYP1A2 (unknown origin) at 10 uM using 7-ethoxycoumarin as substrate preincubated for 5 mins followed by NADPH addition and measured after 20 mins by LC-MS/MS analysis relative to control; format: ADME; conditions: probe 7-ethoxycoumarin
T2 sequence (P05177 whole entry): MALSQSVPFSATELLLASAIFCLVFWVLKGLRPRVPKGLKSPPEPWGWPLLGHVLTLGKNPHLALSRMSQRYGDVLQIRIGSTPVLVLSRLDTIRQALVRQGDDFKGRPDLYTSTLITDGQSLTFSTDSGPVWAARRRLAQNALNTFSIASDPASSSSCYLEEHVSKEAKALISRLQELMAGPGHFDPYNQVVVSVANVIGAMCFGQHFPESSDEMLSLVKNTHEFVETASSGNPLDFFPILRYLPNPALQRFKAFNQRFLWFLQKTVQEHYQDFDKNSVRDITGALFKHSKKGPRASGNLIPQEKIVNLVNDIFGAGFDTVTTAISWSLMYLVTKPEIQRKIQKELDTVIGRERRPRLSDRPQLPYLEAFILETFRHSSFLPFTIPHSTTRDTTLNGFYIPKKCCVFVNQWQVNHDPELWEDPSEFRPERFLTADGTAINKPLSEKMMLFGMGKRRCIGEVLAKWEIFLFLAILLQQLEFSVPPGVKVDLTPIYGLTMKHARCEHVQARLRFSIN

[19] = molecular target: T1, KEAP1/NRF2 (Rattus norvegicus); experiment: Inhibition of Keap1-Nrf2 protein-protein interaction in rat H9c2 cells assessed as upregulation of GCLM expression incubated for 12 hrs by Western blot analysis; format: cell-based; conditions: dose microM 0.1-10, time 12.0 hrs
H9c2 [20] = experiment: Upregulation of Nrf2 mRNA expression in rat H9c2 cells incubated for 12 hrs by Trizol reagent based qRT-PCR analysis; format: functional, cell-based; conditions: dose microM 0.1-10, time 12.0 hrs
[21] = Half-life in rat at 5 mg/kg, iv by LC-MS/MS analysis; format: ADME, organism-based; conditions: in vivo

CYP2C9, sequence (P11712 whole entry): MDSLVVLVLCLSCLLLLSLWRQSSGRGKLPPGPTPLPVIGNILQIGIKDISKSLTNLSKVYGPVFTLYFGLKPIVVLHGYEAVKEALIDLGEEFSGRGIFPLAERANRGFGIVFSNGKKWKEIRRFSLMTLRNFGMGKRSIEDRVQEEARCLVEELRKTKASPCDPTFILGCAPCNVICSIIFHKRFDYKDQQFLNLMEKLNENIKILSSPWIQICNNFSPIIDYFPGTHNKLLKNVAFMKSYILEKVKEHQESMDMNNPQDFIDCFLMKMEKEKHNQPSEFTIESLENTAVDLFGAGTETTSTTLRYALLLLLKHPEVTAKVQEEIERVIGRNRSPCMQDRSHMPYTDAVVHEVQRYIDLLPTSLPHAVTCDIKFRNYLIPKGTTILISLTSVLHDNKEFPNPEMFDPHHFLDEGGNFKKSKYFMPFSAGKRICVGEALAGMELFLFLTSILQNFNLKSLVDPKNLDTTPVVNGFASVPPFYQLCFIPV
CYP2C19, sequence (P33261 whole entry): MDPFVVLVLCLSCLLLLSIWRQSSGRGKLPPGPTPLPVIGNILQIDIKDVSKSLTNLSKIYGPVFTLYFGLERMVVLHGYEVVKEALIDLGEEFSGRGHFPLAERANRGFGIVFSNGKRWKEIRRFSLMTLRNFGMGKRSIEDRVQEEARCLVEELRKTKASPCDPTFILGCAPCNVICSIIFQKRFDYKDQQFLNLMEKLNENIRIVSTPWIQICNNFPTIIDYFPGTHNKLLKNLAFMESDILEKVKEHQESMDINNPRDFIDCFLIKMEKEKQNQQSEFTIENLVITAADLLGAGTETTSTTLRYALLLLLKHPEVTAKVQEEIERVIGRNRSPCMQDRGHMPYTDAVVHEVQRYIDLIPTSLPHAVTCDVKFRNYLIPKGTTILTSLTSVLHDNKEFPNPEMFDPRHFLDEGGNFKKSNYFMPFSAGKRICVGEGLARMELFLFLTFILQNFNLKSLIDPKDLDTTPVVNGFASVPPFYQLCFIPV

COc1ccc(S(=O)(=O)NC(=O)CN(c2cccc3c2CCN3C(C(=O)NS(=O)(=O)c2ccc(C)cc2OC)c2cccc(OC)c2)S(=O)(=O)c2ccc(OC)cc2)cc1 (centres undefined)
Activity (H9c2 [1]): Active | Activity (Mus musculus [2]): Active | Activity (Mus musculus [3]): Active | inhibition [4]: Active | inhibition [5]: Active | clearance [6]: 1.83 mL/min/kg | Activity (H9c2 [7]): Active | AUC(0-t) [8]: 47000 ng·h/mL | Activity (H9c2 [9]): Active | inhibition at 20 min, 10 µM (CYP2C19): 19.8% | Vd [10]: 0.64 L/kg | Activity (Mus musculus [11]): Active | inhibition [12]: Active | inhibition [13]: Active | Activity (Mus musculus [14]): Active | Activity (Mus musculus [15]): Active | inhibition at 20 min, 10 µM (CYP2C9): 30.3% | inhibition [16]: Dose-dependent effect | CLH [17]: 11.4 mL/min/kg | Activity (Mus musculus [18]): Active | inhibition at 20 min, 10 µM (CYP1A2): 8.75% | inhibition [19]: Dose-dependent effect | Activity (H9c2 [20]): Dose-dependent effect | half-life [21]: 241 min
